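Each compound was tested at five concentrations against cells in 96-well plates for 48 hours. GI50 = concentration required for 50% inhibition of growth. The concentration for full growth arrest is given as TGI.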
Tests used:
Assay in all cases: NCI tumour cell line growth inhibition, 48 h
[1] = system: NCI-H522 lung
[2] = system: UACC-257 melanoma
[3] = system: LOX IMVI melanoma
[4] = system: SW-620 colon
[5] = system: A498 renal
[6] = system: MDA-MB-435
[7] = system: OVCAR-3 ovarian
[8] = system: OVCAR-5 ovarian
[9] = system: MALME-3M melanoma
[10] = system: 786-0 renal
[11] = system: SNB-75 CNS
[12] = system: SK-MEL-28 melanoma
[13] = system: KM12 colon
[14] = system: SK-OV-3 ovarian
[15] = system: HCT-116 colon
[16] = system: RPMI-8226 leukemia
[17] = system: T-47D breast
[18] = system: HT29 colon
[19] = system: SK-MEL-2 melanoma
[20] = system: CCRF-CEM leukemia
[21] = system: NCI-H460 lung
[22] = system: SF-268 CNS
[23] = system: SF-295 CNS
[24] = system: HL-60(TB) leukemia
[25] = system: TK-10 renal
[26] = system: K-562 leukemia
[27] = system: SK-MEL-5 melanoma
[28] = system: MOLT-4 leukemia
[29] = system: SF-539 CNS
[30] = system: HCT-15 colon
[31] = system: HOP-62 NSCLC
[32] = system: DU-145 prostate
[33] = system: PC-3 prostate
[34] = system: NCI-H226 lung
[35] = system: ACHN renal
[36] = system: UO-31 renal
[37] = system: BT-549 breast
[38] = system: RXF 393 renal
[39] = system: A549 NSCLC
[40] = system: CAKI-1 renal
[41] = system: HOP-92 NSCLC
[42] = system: NCI/ADR-RES ovarian
[43] = system: EKVX NSCLC
[44] = system: HS 578T breast
[45] = system: U251 CNS
[46] = system: MDA-MB-231 breast
[47] = system: OVCAR-4 ovarian
[48] = system: SNB-19 CNS
[49] = system: NCI-H23 lung
[50] = system: M14 melanoma
[51] = system: SN12C renal
[52] = system: MCF7 breast
[53] = system: UACC-62 melanoma
[54] = system: SR leukemia
[55] = system: IGROV1 ovarian
[56] = system: HCC-2998 colon
[57] = system: OVCAR-8 ovarian

## O=C(N/N=C/c1ccc([N+](=O)[O-])cc1)c1ccc2nc(-c3ccc(Cl)cc3)[nH]c2c1
[1]
  GI50: 3.05 µM
  TGI: 11.7 µM
[2]
  GI50: 3.37 µM
  TGI: 15.4 µM
[3]
  GI50: 1.34 µM
  TGI: 3.22 µM
[4]
  GI50: 3.44 µM
  TGI: 10.8 µM
[5]
  GI50: 2.39 µM
  TGI: 7.75 µM
[6]
  GI50: 3.57 µM
  TGI: 12.2 µM
[7]
  GI50: 3.25 µM
  TGI: 8.23 µM
[8]
  GI50: 4.43 µM
  TGI: 37.8 µM
[9]
  GI50: 1.48 µM
  TGI: 5 µM
[10]
  GI50: 3.92 µM
  TGI: 15.7 µM
[11]
  GI50: 2.78 µM
  TGI: 18 µM
[12]
  GI50: 2.6 µM
  TGI: 10.3 µM
[13]
  GI50: 3.43 µM
  TGI: 13 µM
[14]
  GI50: 11.4 µM
  TGI: 39.6 µM
[15]
  GI50: 2.25 µM
  TGI: 6.9 µM
[16]
  GI50: 0.461 µM
  TGI: 2.41 µM
[17]
  GI50: 2.29 µM
  TGI: 7.21 µM
[18]
  GI50: 3.02 µM
  TGI: > 100 µM
[19]
  GI50: 5.1 µM
  TGI: 21.9 µM
[20]
  GI50: 0.591 µM
  TGI: 17.7 µM
[21]
  GI50: 2.1 µM
  TGI: 4.49 µM
[22]
  GI50: 4.97 µM
  TGI: 24.3 µM
[23]
  GI50: 3.4 µM
  TGI: 13.1 µM
[24]
  GI50: 0.797 µM
  TGI: 5.73 µM
[25]
  GI50: 8.99 µM
  TGI: 42.3 µM
[26]
  GI50: 0.499 µM
  TGI: 8.44 µM
[27]
  GI50: 2.11 µM
  TGI: 4.78 µM
[28]
  GI50: 0.421 µM
  TGI: 3.85 µM
[29]
  GI50: 2.73 µM
  TGI: 10.1 µM
[30]
  GI50: 2.6 µM
  TGI: 13 µM
[31]
  GI50: 6.42 µM
  TGI: 30.8 µM
[32]
  GI50: 3.99 µM
  TGI: 21.4 µM
[33]
  GI50: 0.42 µM
  TGI: 15.3 µM
[34]
  GI50: 5.03 µM
  TGI: 31.2 µM
[35]
  GI50: 4.36 µM
  TGI: 31.9 µM
[36]
  GI50: 6.05 µM
  TGI: 38.3 µM
[37]
  GI50: 2.84 µM
  TGI: 9.71 µM
[38]
  GI50: 2.03 µM
  TGI: 7.07 µM
[39]
  GI50: 3.98 µM
  TGI: 24.1 µM
[40]
  GI50: 3.49 µM
  TGI: 16.1 µM
[41]
  GI50: 0.985 µM
  TGI: 7.52 µM
[42]
  GI50: 12.6 µM
  TGI: > 100 µM
[43]
  GI50: 3.2 µM
  TGI: 21.2 µM
[44]
  GI50: 3.58 µM
  TGI: 24.4 µM
[45]
  GI50: 2.91 µM
  TGI: 10.8 µM
[46]
  GI50: 3.75 µM
  TGI: 13.9 µM
[47]
  GI50: 2.75 µM
  TGI: 8.64 µM
[48]
  GI50: 7.48 µM
  TGI: 32.4 µM
[49]
  GI50: 1.85 µM
  TGI: 11.5 µM
[50]
  GI50: 2.73 µM
  TGI: 9.13 µM
[51]
  GI50: 3.14 µM
  TGI: 18.1 µM
[52]
  GI50: 0.582 µM
  TGI: 2.85 µM
[53]
  GI50: 3.51 µM
  TGI: 14.9 µM
[54]
  GI50: 0.566 µM
  TGI: 4.87 µM
[55]
  GI50: 3.04 µM
  TGI: 11.4 µM
[56]
  GI50: 1.48 µM
  TGI: 4.81 µM
[57]
  GI50: 2.89 µM
  TGI: 13.7 µM
